Our source for the Enzyme activity values is ChEMBL document CHEMBL1132983, “Doubly homologated dihalovinyl and acetylene analogues of adenosine: synthesis, interaction with S-adenosyl-L-homocysteine hydrolase, and antiviral and cytostatic effects” (J Med Chem, 2000).

Assay [1] deals with Adenosylhomocysteinase (Homo sapiens) (UniProt P23526). As to the kind of experiment: Compound was evaluated for inhibition of human placental AdoHcy hydrolase at a concentration of 10 uM.
For assay [2] the target is unchanged. Put plainly: Compound was evaluated for inhibition of human placental AdoHcy hydrolase at a concentration of 50 uM.
Assay [3] has the same target. As to the kind of experiment: Compound was evaluated for inhibition of human placental AdoHcy hydrolase at a concentration of 1.0 uM.
The target is the same in assay [4]. Put plainly: Compound was evaluated for inhibition of human placental AdoHcy hydrolase at a concentration of 100 uM.
The target is the same in assay [5]. As to the kind of experiment: Compound was evaluated for inhibition of human placental AdoHcy hydrolase at a concentration of 0.1 uM.

Adenosylhomocysteinase (Homo sapiens), sequence (P23526 2-432 limits assumed): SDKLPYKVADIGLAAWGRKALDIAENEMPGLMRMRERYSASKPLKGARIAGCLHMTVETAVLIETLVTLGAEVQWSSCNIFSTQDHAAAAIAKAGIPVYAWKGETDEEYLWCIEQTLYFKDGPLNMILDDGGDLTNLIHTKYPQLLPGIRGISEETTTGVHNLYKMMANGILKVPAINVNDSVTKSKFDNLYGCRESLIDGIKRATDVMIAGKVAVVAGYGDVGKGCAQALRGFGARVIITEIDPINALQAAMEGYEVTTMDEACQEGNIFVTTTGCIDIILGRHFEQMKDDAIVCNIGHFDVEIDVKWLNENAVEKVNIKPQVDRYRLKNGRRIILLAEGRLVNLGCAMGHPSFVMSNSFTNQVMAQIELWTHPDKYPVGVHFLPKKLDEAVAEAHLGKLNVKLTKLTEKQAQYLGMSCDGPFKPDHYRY

As to `Nc1ncnc2c1ncn2C1O[C@H](CC=C(Br)Br)[C@@H](O)[C@H]1O` (stereo not given in full), the Enzyme activity in assay [1] came out at 17.1%; in assay [2] it was 5%; in assay [3] it was 48.5%; in assay [4], 4%; in assay [5], 87.5%.
The corresponding values for `C#CC[C@H]1OC(n2cnc3c(N)ncnc32)[C@H](O)[C@@H]1O` (stereo not given in full) are 38.9%, 14.3%, 73.4%, 8% and 98.3%.
For the molecule `Nc1ncnc2c1ncn2C1O[C@H](C/C=C(/F)Br)[C@@H](O)[C@H]1O` (stereo not given in full), the Enzyme activity was 37.4% in assay [1]; 9.7% in assay [2]; 87.4% in assay [3]; 5.8% in assay [4]; 90.6% in assay [5].
